Read-outs that look alike come from different tables or passages of the source.
Tests used:
[1] = test system: mouse L cells; assay: Reversal of Cytotoxic Activity on mouse L cells
[2] = test system: MCF-7 breast adenocarcinoma; assay: Cytotoxicity Assay, MCF-7 (MTT dye reduction assay); format: cell-based; details: 72 hours
Experimental: Cells and Medium: MCF-7 breast adenocarcinoma, obtained from the American Type Culture Collection (ATCC) is grown in RPMI 1640 medium supplemented with 10 nM calcium leucovorin instead of folic acid as the folate source, 10% dialyzed fetal calf serum, penicillin, streptomycin and sodium pyruvate (110 μg/ml).
Cytotoxicity Assay: Cells are seeded into 96 well plates using a Perkin Elmer Pro/pette. MCF-7 cells are seeded at 15,000 cells per well in 150 μl of medium. Prior to the addition of drugs, cultures were incubated for 24 hours at 37°. Compounds were added at 2× concentration in 150 μl of medium and each concentration was assayed in triplicate. Cultures were incubated for 72 hours in a 37° humidified incubator at 5% CO2. Inhibition of cell growth was measured using the MTT dye reduction assay.
MTT Dye Reduction Assay: Cell dilutions for a standard curve were prepared from a 72 hour log-phase culture. Serial dilutions were seeded in triplicate in 96 well plates and incubated at 37° for 1 hour. MTT (3-(4,5-dimethylthiazol-2-yl)-2,5-diphenyltetrazolium bromide) was dissolved in phosphate buffered saline at 5 mg/ml and sonicated for 30 seconds. Using the Perkin Elmer Pro/pette, 200 μl of medium was removed and 100 μl of MTT added to the wells of the standard curve and test plates. Suspension cultures were spun for 5 minutes at 1000 rpm before removing medium from the wells. Plates were incubated for 1 hour at 37° on a platform shaker. Following this incubation, 100 μl of medium was removed from the wells and 100 μl of DMSO added to each well. The plates were sonicated for approximately 10 seconds to solubilize the precipitated formazan dye. The absorbance of each well was measured using a Titertek Multiskan MC microtiter plate reader at 570 nm with a reference wavelength of 750 nm.

[3] = test system: Spiroplasma citri; assay: Activity Against Spiroplasma citri, Sensitivity Test; format: cell-based; details: in words
Experimental: Frozen broth cultures are diluted to a predetermined titre of 100 color changing units for the test. Organisms are grown in Difco PPLO broth base with added serum, glucose, phenol red, ampicillin, thallium acetate and yeast extract. Incubation is at 32° C. Incubation with varying levels of the test compound in the above medium are performed in well plates and an amount of Spiroplasma citri cells is added that will produce a color change by a fixed time of growth. The lowest concentration of compound that fails to produce a color change or gives a two day delay in color change indicates minimum inhibitory concentration.

[4] = test system: Lactobacillus casei; assay: Activity against Lactobacillus casei; format: cell-based; details: in words
[5] = test system: Streptococcus faecium; assay: Activity against Streptococcus faecium; format: cell-based; details: in words
[6] = test system: yellow fever virus; details: in words
[7] = Stability on extended exposure to light; format: physicochemical; details: white powder
[8] = test system: mouse L cells

NC(=O)c1ncn([C@@H]2O[C@H](COP(=O)(O)O)[C@@H](O)[C@H]2O)c1N [AICAR, 5-aminoimidazole-4-carboxamide ribonucleotide]
reversal of the cytotoxicity of the compound of Example 3 [1]: able to reverse the cytotoxicity of the compound of Example 3

Nc1nc(N)c(CCCNc2ccc(C(=O)N[C@@H](CCC(=O)O)C(=O)O)cc2)c(=O)[nH]1 [Example 1, N-[4-[3-(2,4-diamino-1,6-dihydro-6-oxo-5-pyrimidinyl)propylamino]benzoyl]-L-glutamic acid]
inhibiting the growth of MCF-7 cells [2]: active in inhibiting the growth of MCF-7 cells | activity against Spiroplasma citri [3]: activity against the mycoplasma, Spiroplasma citri | activity against Lactobacillus casei [4]: possess activity against certain bacterial organisms | activity against Streptococcus faecium [5]: possess activity against certain bacterial organisms | activity against yellow fever virus [6]: some activity against yellow fever virus

CN(CCCc1c(N)nc(N)[nH]c1=O)c1ccc(C(=O)N[C@@H](CCC(=O)O)C(=O)O)cc1 [Example 2, N-[4-[3-(2,4-diamino-1,6-dihydro-6-oxo-5-pyrimidinyl)-N-methylpropylamino]benzoyl]-L-glutamic acid]
inhibiting the growth of MCF-7 cells [2]: active in inhibiting the growth of MCF-7 cells | activity against Spiroplasma citri [3]: activity against the mycoplasma, Spiroplasma citri

Nc1nc(N)c(CCCN(C=O)c2ccc(C(=O)N[C@@H](CCC(=O)O)C(=O)O)cc2)c(=O)[nH]1 [Example 3, N-[4-[3-(2,4-Diamino-1,6-dihydro-6-oxo-5-pyrimidinyl)-N-formylpropylamino]benzoyl]-L-glutamic acid]
inhibiting the growth of MCF-7 cells [2]: active in inhibiting the growth of MCF-7 cells | activity against Spiroplasma citri [3]: activity against the mycoplasma, Spiroplasma citri | activity against yellow fever virus [6]: some activity against yellow fever virus

CN(CCc1c(N)nc(N)[nH]c1=O)c1ccc(C(=O)N[C@@H](CCC(=O)O)C(=O)O)cc1 [Example 5, N-[4-[2-(2,4-diamino-1,6-dihydro-6-oxo-5-pyrimidinyl)ethyl-N-methylamino]benzoyl]-L-glutamic acid]
appearance upon extended exposure to light [7]: became tan upon extended exposure to light

Nc1nc2c(c(=O)[nH]1)N(C=O)C(CNc1ccc(C(=O)N[C@@H](CCC(=O)O)C(=O)O)cc1)CN2 (stereo partly shown) [calcium leucovorin]
reversal of the cytotoxicity of the compound of Example 1 [8]: able to reverse the cytotoxicity of the compound of Example 1 | reversal of the cytotoxicity of the compound of Example 3 [8]: able to reverse the cytotoxicity of the compound of Example 3

O=c1[nH]cnc2nc[nH]c12 [hypoxanthine]
reversal of the cytotoxicity of the compound of Example 1 [8]: able to reverse the cytotoxicity of the compound of Example 1 | reversal of the cytotoxicity of the compound of Example 3 [8]: able to reverse the cytotoxicity of the compound of Example 3

— US4940713A, “Substituted glutamic acids” (Burroughs Wellcome Co., priority 1988, dated 1990)
